Test results taken from patent publication US10908153B2, “Pseudomonas aeruginosa inhibitor compounds” (priority 2015, dated 2021).

Molecular target: T1, PscE-PscG interaction (Pseudomonas aeruginosa, UniProt P95435+Q9I317)
T1 construct: made in house; host or cells: E. coli
Assay: ELISA test of inhibition of the PscE-PscG interaction
Type: binding
Details: for inhibition at 50 µM: 4 h, read-out: PscE-PscG at 50 μM; for inhibition at 25 µM: read-out: % inhibition PscE-PscG at 50 μm; for inhibitory effect compared with clioquinol: ELISA test, 50 μM, Table 2; for PscE-PscG at 50 μM: inhibition by new synthetic analogues at 50 μM, PscG 2.2 μM, PscE solution 3 μM
Method: 50 μL of PscG protein at 1 μM (for screening libraries) or 2.2 μM (for screening newly synthesized molecules) is incubated in a NUNC 96-well plate for 8 h at 4° C. The wells are washed three times with 200 μL of 1× PBS/0.1% Tween20®. The wells are treated overnight at 4° C. with 200 μL of a 5% milk solution in 1× PBS/0.1% Tween20®. The solution is then discarded, and the plate is drained dry.
The test is carried out as follows:
Negative control (lowest signal level): 100 μL of buffer ([…] Tris-HCl, 250 mM NaCl, pH 8.0);
Positive control (highest signal level): 50 μL of buffer and 50 μL of a test solution at 25 (library screening) or 3 μM (screening of analogue molecules) of the PscE protein;
Test of the inhibitors: 40 μL buffer, 50 μL of a solution at 25 μM (library screening) or 3 μM (screening of analogue molecules) of PscE protein and 10 μL of the solution containing the inhibitor to be tested.
The solutions are left for 4 h at room temperature.
The wells are washed three times with 200 μL of 1× PBS/0.1% Tween20®. The anti-PscE antibody diluted to 1:2,000 in 1× PBS/0.1% Tween20®, 50 μL, is added and the whole is left 2 h at room temperature. The wells are washed three times with 200 μL of 1× PBS/0.1% Tween20®. The HRP-conjugated anti-mouse antibody is diluted to 1:5,000 in 1× PBS/0.1% Tween20® and 50 μL is added and left for 2 h at room temperature. The wells are washed three times with 200 μL of 1× PBS/0.1% Tween20®.
The ELISA test is developed by adding 50 μL of TMB reagent followed by incubation for 15 minutes at room temperature in the dark. The reaction is stopped by adding 50 μL of 2N HCl. The plate is read at 450 nm.

T1 sequence (Q9I317 whole entry): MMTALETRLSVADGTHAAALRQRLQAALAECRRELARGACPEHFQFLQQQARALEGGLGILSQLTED
T1 sequence (P95435 whole entry): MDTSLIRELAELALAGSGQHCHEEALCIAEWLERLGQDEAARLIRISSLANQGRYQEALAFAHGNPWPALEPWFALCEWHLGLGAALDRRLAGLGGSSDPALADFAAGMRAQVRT

Structure (SMILES)	inhibition at 50 µM [%]	other results
[N-]=[N+]=NCCCCCCCCOCCCc1ccc[n+](CCCCCCCCCCOCCCc2cccnc2)c1 [molecule 29, 3-(3-(8-azidooctyloxy)propyl)-1-(10-(3-(pyridin-3-yl)propoxy)decyl)pyridinium chloride]	24	
Cc1cc2c(C(C)C)c(O)c(O)c(C=O)c2c(O)c1-c1c(C)cc2c(C(C)C)c(O)c(O)c(C=O)c2c1O [Gossypol, reference compound]		inhibition at 25 µM: 73.9%
CC(=O)Oc1c(-c2cn(CCCCCCCCOCCCc3ccc[n+](CCCCCCOCCCc4cccnc4)c3)nn2)cc(Cl)c2cccnc12 [molecule 41, 3-(3-(8-(4-(8-acetoxy-5-chloroquinolin-7-yl)-1H-1,2,3-triazol-1-yl)octyloxy)propyl)-1-(6-(3-(pyridin-3-yl)propoxy)hexyl)pyridinium chloride]	69.1	inhibitory effect compared with clioquinol: superior to clioquinol
CC(=O)Oc1c(-c2cn(CCCCOCCCc3ccc[n+](CCCCCCCCOCCCc4cccnc4)c3)nn2)cc(Cl)c2cccnc12 [molecule 38, 3-(3-(4-(4-(8-acetoxy-5-chloroquinolin-7-yl)-1H-1,2,3-triazol-1-yl)butoxy)propyl)-1-(8-(3-(pyridin-3-yl)propoxy)octyl)pyridinium chloride]	27.3	
CC(=O)Oc1c(-c2cn(CCCCCCOCCCc3ccc[n+](CCCCCCOCCCc4cccnc4)c3)nn2)cc(Cl)c2cccnc12 [molecule 39, 3-(3-(6-(4-(8-acetoxy-5-chloroquinolin-7-yl)-1H-1,2,3-triazol-1-yl)hexyloxy)propyl)-1-(6-(3-(pyridin-3-yl)propoxy)hexyl)pyridinium chloride]	97.3	inhibitory effect compared with clioquinol: superior to clioquinol
CC(=O)Oc1c(-c2cn(CCCCCCCCCCCCOCCCc3ccc[n+](CCCCCCCCCCOCCCc4cccnc4)c3)nn2)cc(Cl)c2cccnc12 [molecule 51, 3-(3-(12-(4-(8-acetoxy-5-chloroquinolin-7-yl)-1H-1,2,3-triazol-1-yl)dodecyloxy)propyl)-1-(10-(3-(pyridin-3-yl)propoxy)decyl)pyridinium chloride]	28.9	
CC(=O)Oc1c(-c2cn(CCCCCCOCCCc3ccc[n+](CCCCCCCCCCOCCCc4cccnc4)c3)nn2)cc(Cl)c2cccnc12 [molecule 45, 3-(3-(6-(4-(8-acetoxy-5-chloroquinolin-7-yl)-1H-1,2,3-triazol-1-yl)hexyloxy)propyl)-1-(10-(3-(pyridin-3-yl)propoxy)decyl)pyridinium chloride]	71.6	inhibitory effect compared with clioquinol: superior to clioquinol
[N-]=[N+]=NCCCCCCCCCCCCOCCCc1ccc[n+](CCCCCCCCCCCCOCCCc2cccnc2)c1 [molecule 34, 3-(3-(12-azidododecyloxy)propyl)-1-(12-(3-(pyridin-3-yl)propoxy)dodecyl)pyridinium chloride]	30.6	
CC(=O)Oc1c(-c2cn(CCCCCCCCOCCCc3ccc[n+](CCCCCCCCCCOCCCc4cccnc4)c3)nn2)cc(Cl)c2cccnc12 [molecule 47, 3-(3-(8-(4-(8-acetoxy-5-chloroquinolin-7-yl)-1H-1,2,3-triazol-1-yl)octyloxy)propyl)-1-(10-(3-(pyridin-3-yl)propoxy)decyl)pyridinium chloride]		PscE-PscG at 50 μM: no inhibition
O=c1c(O)c(-c2cc(O)c(O)c(O)c2)oc2cc(O)cc(O)c12 [Myricetin, reference compound]		inhibition at 25 µM: 80.5%
CC(=O)Oc1c(-c2cn(CCCCCCCCCCOCCCc3ccc[n+](CCCCCCOCCCc4cccnc4)c3)nn2)cc(Cl)c2cccnc12 [molecule 42, 3-(3-(10-(4-(8-acetoxy-5-chloroquinolin-7-yl)-1H-1,2,3-triazol-1-yl)decyloxy)propyl)-1-(6-(3-(pyridin-3-yl)propoxy)hexyl)pyridinium chloride]		PscE-PscG at 50 μM: no inhibition
CC(=O)Oc1c(-c2cn(CCCCCCCCCCOCCCc3ccc[n+](CCCCCCCCCCCCOCCCc4cccnc4)c3)nn2)cc(Cl)c2cccnc12 [molecule 50, 3-(3-(10-(4-(8-acetoxy-5-chloroquinolin-7-yl)-1H-1,2,3-triazol-1-yl)decyloxy)propyl)-1-(12-(3-(pyridin-3-yl)propoxy)dodecyl)pyridinium chloride]	18.9	
[N-]=[N+]=NCCCCCCCCCCCCOCCCc1ccc[n+](CCCCOCCCc2cccnc2)c1 [molecule 26, 3-(3-(12-azidododecyloxy)propyl)-1-(4-(3-(pyridin-3-yl)propoxy)butyl)pyridinium chloride]	44.2	
CC(=O)Oc1c(-c2cn(CCCCOCCCc3ccc[n+](CCCCCCOCCCc4cccnc4)c3)nn2)cc(Cl)c2cccnc12 [molecule 36, 3-(3-(4-(4-(8-acetoxy-5-chloroquinolin-7-yl)-1H-1,2,3-triazol-1-yl)butoxy)propyl)-1-(6-(3-(pyridin-3-yl)propoxy)hexyl)pyridinium chloride]	54.2	inhibitory effect compared with clioquinol: superior to clioquinol
CC(=O)Oc1c(-c2cn(CCCCCCCCOCCCc3ccc[n+](CCCCCCCCOCCCc4cccnc4)c3)nn2)cc(Cl)c2cccnc12 [molecule 43, 3-(3-(8-(4-(8-acetoxy-5-chloroquinolin-7-yl)-1H-1,2,3-triazol-1-yl)octyloxy)propyl)-1-(8-(3-(pyridin-3-yl)propoxy)octyl)pyridinium chloride]	29.5	
